Tests used:
velvetleaf [1] = assay: Test Example 4: herbicidal effect by soil treatment (Table 19, symbol M); type: in vivo, velvetleaf (Abutilon theophrasti); details: 320 g/ha
Method in brief: (§1)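 Emulsion of test compound, water-diluted to predetermined amount, sprayed on soil after sowing (seed depth ~1.5 cm, sterilized diluvial soil). Greenhouse, 25–30° C. Effect graded at three weeks post-spray.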

persian speedwell [2] = assay: Test Example 4: herbicidal effect by soil treatment (Table 19, symbol R); type: in vivo, Persian speedwell (Veronica persica); details: 320 g/ha
Method in brief: as §1

blackgrass [3] = assay: Test Example 4: herbicidal effect by soil treatment (Table 19, symbol J); type: in vivo, blackgrass (Alopecurus myosuroides); details: 320 g/ha
Method in brief: as §1

oval-leafed pondweed = assay: Test Example 2: herbicidal activity, application during weed generation under submerged conditions (Table 17, symbol C); type: in vivo, oval-leafed pondweed (Monochoria vaginalis); details: AAH 320 g/ha; application during weed generation, submerged conditions
Method in brief: (§2)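 Steps: fill Wagner pots with alluvial soil; add water to give 4 cm depth; sow the species mixed; grow under glass at 25–30° C.; at 1–2 leaves apply water-diluted emulsion formulation to the water surface at a fixed herbicide amount; score after 3 weeks.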

barnyard grass [4] = assay: Test Example 4: herbicidal effect by soil treatment (Table 19, symbol H); type: in vivo, barnyard grass (Echinochloa crus-galli); details: 320 g/ha
Method in brief: as §1

lambsquarters [5] = assay: Test Example 5: herbicidal effect by foliage application, plastic box (Table 20, symbol O); type: in vivo, lambsquarters (Chenopodium album); details: foliage application, 320 g/ha, 3 weeks after application
Method in brief: (§3)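 Post-emergence foliar test in sterilized diluvial soil. Compound applied as water-diluted emulsion at a predetermined rate to 14-day-old plants; evaluation at three weeks.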

blackgrass [6] = assay: Test Example 5: herbicidal effect by foliage application, plastic box (Table 20, symbol J); type: in vivo, blackgrass (Alopecurus myosuroides); details: foliage application, 320 g/ha, 3 weeks after application
Method in brief: as §3

late watergrass = assay: Test Example 2: herbicidal activity, application during weed generation under submerged conditions (Table 17, symbol A); type: in vivo, late watergrass (Echinochloa oryzicola); details: AAH 320 g/ha; application during weed generation, submerged conditions
Method in brief: as §2

southern crabgrass [7] = assay: Test Example 5: herbicidal effect by foliage application, plastic box (Table 20, symbol F); type: in vivo, southern crabgrass (Digitaria ciliaris); details: foliage application, 320 g/ha, 3 weeks after application
Method in brief: as §3

redroot pigweed = assay: Test Example 4: herbicidal effect by soil treatment (Table 19, symbol N); type: in vivo, redroot pigweed (Amaranthus retroflexus); details: 320 g/ha
Method in brief: as §1

Chinese sprangletop = assay: Test Example 3: herbicidal effect by foliage application, Wagner pot (Table 18, symbol D); type: in vivo, chinese sprangletop (Leptochloa chinensis); details: 320 g/ha
Method in brief: (§4)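 Plants were sown in alluvial soil held under 0.1–0.5 cm standing water and grown 14 days in a greenhouse at 25–30 °C. An emulsifiable formulation, water-diluted to the set dose, was then sprayed onto the foliage, and effects were scored three weeks later using previously defined criteria.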

barnyard grass [8] = assay: Test Example 5: herbicidal effect by foliage application, plastic box (Table 20, symbol H); type: in vivo, barnyard grass (Echinochloa crus-galli); details: foliage application, 320 g/ha, 3 weeks after application
Method in brief: as §3

rice flat sedge = assay: Test Example 3: herbicidal effect by foliage application, Wagner pot (Table 18, symbol E); type: in vivo, rice flat sedge (Cyperus iria); details: 320 g/ha
Method in brief: as §4

wild oat [9] = assay: Test Example 4: herbicidal effect by soil treatment (Table 19, symbol I); type: in vivo, wild oat (Avena fatua); details: 320 g/ha
Method in brief: as §1

lambsquarters [10] = assay: Test Example 4: herbicidal effect by soil treatment (Table 19, symbol O); type: in vivo, lambsquarters (Chenopodium album); details: 320 g/ha
Method in brief: as §1

chickweed = assay: Test Example 4: herbicidal effect by soil treatment (Table 19, symbol P); type: in vivo, common chickweed (Stellaria media); details: 320 g/ha
Method in brief: as §1

barnyard grass [11] = assay: Test Example 3: herbicidal effect by foliage application, Wagner pot (Table 18, symbol H); type: in vivo, barnyard grass (Echinochloa crus-galli); details: 320 g/ha
Method in brief: as §4

persian speedwell [12] = assay: Test Example 5: herbicidal effect by foliage application, plastic box (Table 20, symbol R); type: in vivo, Persian speedwell (Veronica persica); details: foliage application, 320 g/ha, 3 weeks after application
Method in brief: as §3

false cleavers [13] = assay: Test Example 5: herbicidal effect by foliage application, plastic box (Table 20, symbol Q); type: in vivo, false cleavers (Galium spurium); details: foliage application, 320 g/ha, 3 weeks after application
Method in brief: as §3

Japanese bulrush = assay: Test Example 2: herbicidal activity, application during weed generation under submerged conditions (Table 17, symbol B); type: in vivo, Japanese bulrush (Schoenoplectus juncoides); details: AAH 320 g/ha; application during weed generation, submerged conditions
Method in brief: as §2

velvetleaf [14] = assay: Test Example 5: herbicidal effect by foliage application, plastic box (Table 20, symbol M); type: in vivo, velvetleaf (Abutilon theophrasti); details: foliage application, 320 g/ha, 3 weeks after application
Method in brief: as §3

green foxtail [15] = assay: Test Example 5: herbicidal effect by foliage application, plastic box (Table 20, symbol G); type: in vivo, green foxtail (Setaria viridis); details: foliage application, 320 g/ha, 3 weeks after application
Method in brief: as §3

false cleavers [16] = assay: Test Example 4: herbicidal effect by soil treatment (Table 19, symbol Q); type: in vivo, false cleavers (Galium spurium); details: 320 g/ha
Method in brief: as §1

windgrass [17] = assay: Test Example 4: herbicidal effect by soil treatment (Table 19, symbol L); type: in vivo, windgrass (Apera spica-venti); details: 320 g/ha
Method in brief: as §1

wild oat [18] = assay: Test Example 5: herbicidal effect by foliage application, plastic box (Table 20, symbol I); type: in vivo, wild oat (Avena fatua); details: foliage application, 320 g/ha, 3 weeks after application
Method in brief: as §3

southern crabgrass [19] = assay: Test Example 4: herbicidal effect by soil treatment (Table 19, symbol F); type: in vivo, southern crabgrass (Digitaria ciliaris); details: 320 g/ha
Method in brief: as §1

Italian ryegrass [20] = assay: Test Example 5: herbicidal effect by foliage application, plastic box (Table 20, symbol K); type: in vivo, Italian ryegrass (Lolium multiflorum); details: foliage application, 320 g/ha, 3 weeks after application
Method in brief: as §3

windgrass [21] = assay: Test Example 5: herbicidal effect by foliage application, plastic box (Table 20, symbol L); type: in vivo, windgrass (Apera spica-venti); details: foliage application, 320 g/ha, 3 weeks after application
Method in brief: as §3

green foxtail [22] = assay: Test Example 4: herbicidal effect by soil treatment (Table 19, symbol G); type: in vivo, green foxtail (Setaria viridis); details: 320 g/ha
Method in brief: as §1

Italian ryegrass [23] = assay: Test Example 4: herbicidal effect by soil treatment (Table 19, symbol K); type: in vivo, Italian ryegrass (Lolium multiflorum); details: 320 g/ha
Method in brief: as §1

`CCCC(=O)Oc1c(C)nn(C)c(=O)c1-c1c(-c2ccc(F)cc2)sc2ccc(F)cc12` [2-002] was tested, and the “herbicidal effect rating, M: velvetleaf” value (velvetleaf [1]) was 5 (Herbicidal rate of 90% or more (almost completely withered)), the “herbicidal effect rating, R: persian speedwell” value (persian speedwell [2]) was 5 (Herbicidal rate of 90% or more (almost completely withered)) and the “herbicidal effect rating, J: blackgrass” value (blackgrass [3]) was 1 (Herbicidal rate of 5% or more and less than 20%). For the same compound, the “herbicidal effect rating, C: oval-leafed pondweed” value (oval-leafed pondweed) was 3 (Herbicidal rate of 40% or more and less than 70%), the “herbicidal effect rating, H: barnyard grass” value (barnyard grass [4]) was 4 (Herbicidal rate of 70% or more and less than 90%) and the “effect on lambsquarters (O)” value (lambsquarters [5]) was 5 (Herbicidal rate of 90% or more (almost completely withered)). The “effect on blackgrass (J)” value (blackgrass [6]) was 4 (Herbicidal rate of 70% or more and less than 90%), the “herbicidal effect rating, A: late watergrass” value (late watergrass) was 2 (Herbicidal rate of 20% or more and less than 40%) and the “effect on southern crabgrass (F)” value (southern crabgrass [7]) was 5 (Herbicidal rate of 90% or more (almost completely withered)). For the same compound, the “herbicidal effect rating, N: redroot pigweed” value (redroot pigweed) was 5 (Herbicidal rate of 90% or more (almost completely withered)), the “herbicidal effect on D (Chinese sprangletop), rating 0-5” value (Chinese sprangletop) was 5 (Herbicidal rate of 90% or more (almost completely withered)) and the “effect on barnyard grass (H)” value (barnyard grass [8]) was 5 (Herbicidal rate of 90% or more (almost completely withered)). The “herbicidal effect on E (rice flat sedge), rating 0-5” value (rice flat sedge) was 5 (Herbicidal rate of 90% or more (almost completely withered)), the “herbicidal effect rating, I: wild oat” value (wild oat [9]) was 3 (Herbicidal rate of 40% or more and less than 70%) and the “herbicidal effect rating, O: lambsquarters” value (lambsquarters [10]) was 4 (Herbicidal rate of 70% or more and less than 90%). For the same compound, the “herbicidal effect rating, P: chickweed” value (chickweed) was 3 (Herbicidal rate of 40% or more and less than 70%), the “herbicidal effect on H (barnyard grass), rating 0-5” value (barnyard grass [11]) was 5 (Herbicidal rate of 90% or more (almost completely withered)) and the “effect on persian speedwell (R)” value (persian speedwell [12]) was 5 (Herbicidal rate of 90% or more (almost completely withered)). The “effect on false cleavers (Q)” value (false cleavers [13]) was 5 (Herbicidal rate of 90% or more (almost completely withered)), the “herbicidal effect rating, B: Japanese bulrush” value (Japanese bulrush) was 0 (Herbicidal rate of 5% or less (almost no effect)) and the “effect on velvetleaf (M)” value (velvetleaf [14]) was 5 (Herbicidal rate of 90% or more (almost completely withered)). The “effect on green foxtail (G)” value (green foxtail [15]) was 5 (Herbicidal rate of 90% or more (almost completely withered)), the “herbicidal effect rating, Q: false cleavers” value (false cleavers [16]) was 4 (Herbicidal rate of 70% or more and less than 90%) and the “herbicidal effect rating, L: windgrass” value (windgrass [17]) was 1 (Herbicidal rate of 5% or more and less than 20%). For the same compound, the “effect on wild oat (I)” value (wild oat [18]) was 4 (Herbicidal rate of 70% or more and less than 90%), the “herbicidal effect rating, F: southern crabgrass” value (southern crabgrass [19]) was 5 (Herbicidal rate of 90% or more (almost completely withered)) and the “effect on Italian ryegrass (K)” value (Italian ryegrass [20]) was 5 (Herbicidal rate of 90% or more (almost completely withered)). The “effect on windgrass (L)” value (windgrass [21]) was 3 (Herbicidal rate of 40% or more and less than 70%), the “herbicidal effect rating, G: green foxtail” value (green foxtail [22]) was 5 (Herbicidal rate of 90% or more (almost completely withered)) and the “herbicidal effect rating, K: Italian ryegrass” value (Italian ryegrass [23]) was 5 (Herbicidal rate of 90% or more (almost completely withered)).

— patent US20230085307A1, “PYRIDAZINONE COMPOUND AND HERBICIDE” (NISSAN CHEMICAL CORPORATION, priority 2019, published 2023)
